The record followed here is publication PMC2837466 (Journal of chromatography. B, Analytical technologies in …, 2010).

This experiment concerns the target human serum albumin (HSA) (Homo sapiens, UniProt P02768). The experiment in a line: high-performance affinity chromatography, frontal analysis. The class given is binding.

Chain of human serum albumin (HSA) (P02768 25-609): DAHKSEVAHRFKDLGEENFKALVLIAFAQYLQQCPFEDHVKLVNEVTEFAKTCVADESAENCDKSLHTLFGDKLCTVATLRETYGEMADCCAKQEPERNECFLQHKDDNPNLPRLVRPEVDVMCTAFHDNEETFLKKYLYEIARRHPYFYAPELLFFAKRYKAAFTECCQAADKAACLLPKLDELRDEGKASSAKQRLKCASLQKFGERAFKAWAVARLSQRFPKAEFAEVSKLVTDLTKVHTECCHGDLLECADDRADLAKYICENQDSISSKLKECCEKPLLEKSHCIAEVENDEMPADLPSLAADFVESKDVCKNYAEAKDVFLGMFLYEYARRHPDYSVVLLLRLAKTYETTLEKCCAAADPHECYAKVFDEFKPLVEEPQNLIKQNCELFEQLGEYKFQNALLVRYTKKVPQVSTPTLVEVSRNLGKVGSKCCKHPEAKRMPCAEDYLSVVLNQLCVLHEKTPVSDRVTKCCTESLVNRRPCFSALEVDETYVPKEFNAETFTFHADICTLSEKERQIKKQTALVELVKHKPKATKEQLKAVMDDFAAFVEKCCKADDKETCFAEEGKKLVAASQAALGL

For the molecule `CCN(CC)CC(=O)Nc1c(C)cccc1C` [lidocaine], the equilibrium dissociation constant (Kd) is 21.3 µM.
